Laboratory results from patent US10934274B2, “Quinoline derivatives as TAM RTK inhibitors” (Qurient Co., Ltd., priority 2015, dated 2021).

What was measured:
[1] = tested on: Axl phosphorylation in transiently transfected HEK293T cells; assay: Cellular Axl phosphorylation assay; format: cell-based; settings: Homo sapiens, HEK-293T; HEK293T cells transfected with Axl, 1 hour compound treatment, Phospho-Axl vs Total-Axl
Source text: Cell AXL Inhibition Assay Principle
The assay is based on the measurement of the relative amounts of Total-Axl and Phosphorylated-Axl in whole cell lysates of transiently transfected HEK293T cells. This assay is based on application of the Mesoscale western blot and subsequent electro-chemiluminescence detection. Overexpression of Axl-RTK (Receptor tyrosine kinase) by transfection leads to an increase in Axl-trans-autophosphorylation events. Upon compound treatment, the correlation of the measured values of Phosphorylated-Axl and Total Axl indicate the potential of the tested compound to inhibit Axl-phosphorylation at the given compound concentration.
Cell AXL Inhibition Assay Protocol
HEK293T cells (2.5×10^4/well) were plated in a 96 well plate and cells were transfected with pcDNA_DEST_40 Axl or pcDNA_DEST_40 by Superfact reagent (Qiagen. Co. Ltd.). After overnight, the transfection reagent of each well was removed from cells and replaced by fresh prewarmed medium. On the following day, cells were treated with the respective test compound which was diluted by the same method, as in the Axl binding assay using DMSO, for 1 hour
After incubation with the test compounds, cells in the well of the plate were lysed using Tris lysis buffer. The lysate was transferred to two plates (total-Axl and phosphor-Axl) Mesoscale high bind plates and incubated for two hours at room temperature. Afterwards the lysates were removed from the plates and the plates were blocked using Blocking buffer. Subsequently Total-Axl antibody (H-124, Santa Cruz) was transferred to one Mesoscale high bind plate, and Phospho-Axl antibody (AF2228, R&D) to the other plate. After 1 h incubation, Sulpho-Tag antibody (goat anti-rabbit, Mesoscale) was added and again incubated for 1 hour. For the measurement, 2×MSD read buffer was added to each well and the plates were analyzed with a Mesoscale Sector Imager 2400. IC50 (half the maximal inhibitory concentration) was determined relative to between the vehicle (DMSO) control group and minimum control group as transfection of the control vector (pcDNA_DEST_40).
The results after this assay are shown in table 3 for selected compounds.

TYRO3 = target: T1, TYRO3 (Homo sapiens, UniProt Q06418); assay: LanthaScreen Eu kinase binding assay, TYRO3; settings: Tracer 236
T1 construct: purchased Life Technologies
T1 sequence (Q06418 41-890): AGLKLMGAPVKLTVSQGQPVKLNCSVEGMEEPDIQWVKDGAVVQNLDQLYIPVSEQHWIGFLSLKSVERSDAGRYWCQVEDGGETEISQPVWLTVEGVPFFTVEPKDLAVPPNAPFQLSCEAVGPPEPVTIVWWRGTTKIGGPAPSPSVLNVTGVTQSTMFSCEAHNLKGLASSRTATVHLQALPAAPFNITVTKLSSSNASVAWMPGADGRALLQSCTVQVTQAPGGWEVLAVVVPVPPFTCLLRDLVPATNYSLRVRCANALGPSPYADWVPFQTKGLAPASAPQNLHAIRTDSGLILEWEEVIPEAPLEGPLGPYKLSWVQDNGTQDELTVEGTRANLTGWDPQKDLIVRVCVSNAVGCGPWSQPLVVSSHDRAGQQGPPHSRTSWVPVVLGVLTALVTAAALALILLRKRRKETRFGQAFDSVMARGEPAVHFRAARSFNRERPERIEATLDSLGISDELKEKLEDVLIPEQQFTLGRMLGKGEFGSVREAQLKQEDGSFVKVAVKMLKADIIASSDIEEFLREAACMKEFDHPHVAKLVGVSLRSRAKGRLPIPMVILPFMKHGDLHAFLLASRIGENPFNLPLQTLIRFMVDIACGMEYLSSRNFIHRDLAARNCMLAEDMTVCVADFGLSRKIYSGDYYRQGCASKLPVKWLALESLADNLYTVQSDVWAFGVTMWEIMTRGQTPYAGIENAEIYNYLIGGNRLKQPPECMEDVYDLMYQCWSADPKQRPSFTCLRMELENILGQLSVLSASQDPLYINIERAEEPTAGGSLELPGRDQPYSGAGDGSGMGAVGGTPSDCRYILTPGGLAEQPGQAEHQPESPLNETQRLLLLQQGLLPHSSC

Mer = target: T2, Mer (Homo sapiens, UniProt Q12866); assay: LanthaScreen Eu kinase binding assay, Mer; settings: Tracer 236
T2 construct: purchased Life Technologies
T2 sequence (Q12866 21-999): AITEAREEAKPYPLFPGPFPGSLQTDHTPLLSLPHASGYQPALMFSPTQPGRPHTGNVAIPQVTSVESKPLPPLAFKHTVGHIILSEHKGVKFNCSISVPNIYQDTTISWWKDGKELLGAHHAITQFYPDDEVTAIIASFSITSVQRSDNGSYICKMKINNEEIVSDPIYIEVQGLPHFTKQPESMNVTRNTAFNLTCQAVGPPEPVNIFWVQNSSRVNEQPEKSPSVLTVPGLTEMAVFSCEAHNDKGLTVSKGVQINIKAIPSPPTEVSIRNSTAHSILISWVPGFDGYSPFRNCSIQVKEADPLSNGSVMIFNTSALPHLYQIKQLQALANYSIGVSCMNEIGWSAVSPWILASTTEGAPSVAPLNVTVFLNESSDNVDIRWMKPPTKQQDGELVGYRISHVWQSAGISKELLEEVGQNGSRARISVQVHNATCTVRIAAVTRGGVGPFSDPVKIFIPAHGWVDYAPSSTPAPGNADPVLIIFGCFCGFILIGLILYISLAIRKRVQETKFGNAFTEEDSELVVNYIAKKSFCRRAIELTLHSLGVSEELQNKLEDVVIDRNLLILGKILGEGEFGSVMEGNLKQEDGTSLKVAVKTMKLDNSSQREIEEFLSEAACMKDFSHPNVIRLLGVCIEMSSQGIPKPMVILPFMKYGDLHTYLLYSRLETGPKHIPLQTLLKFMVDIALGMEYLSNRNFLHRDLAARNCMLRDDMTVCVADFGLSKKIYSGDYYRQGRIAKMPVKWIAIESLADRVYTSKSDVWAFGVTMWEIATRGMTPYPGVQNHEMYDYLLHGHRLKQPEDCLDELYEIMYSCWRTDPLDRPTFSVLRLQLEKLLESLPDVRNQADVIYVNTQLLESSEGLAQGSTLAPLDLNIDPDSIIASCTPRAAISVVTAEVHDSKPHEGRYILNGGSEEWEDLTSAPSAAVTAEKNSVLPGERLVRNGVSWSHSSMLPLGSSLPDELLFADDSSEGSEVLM

Met = target: T3, Met (Homo sapiens, UniProt P08581); assay: LanthaScreen Eu kinase binding assay, Met; settings: Tracer 236, read-out: cMet kinase binding activity (Kd)
T3 construct: purchased Life Technologies
T3 sequence (P08581 25-1390): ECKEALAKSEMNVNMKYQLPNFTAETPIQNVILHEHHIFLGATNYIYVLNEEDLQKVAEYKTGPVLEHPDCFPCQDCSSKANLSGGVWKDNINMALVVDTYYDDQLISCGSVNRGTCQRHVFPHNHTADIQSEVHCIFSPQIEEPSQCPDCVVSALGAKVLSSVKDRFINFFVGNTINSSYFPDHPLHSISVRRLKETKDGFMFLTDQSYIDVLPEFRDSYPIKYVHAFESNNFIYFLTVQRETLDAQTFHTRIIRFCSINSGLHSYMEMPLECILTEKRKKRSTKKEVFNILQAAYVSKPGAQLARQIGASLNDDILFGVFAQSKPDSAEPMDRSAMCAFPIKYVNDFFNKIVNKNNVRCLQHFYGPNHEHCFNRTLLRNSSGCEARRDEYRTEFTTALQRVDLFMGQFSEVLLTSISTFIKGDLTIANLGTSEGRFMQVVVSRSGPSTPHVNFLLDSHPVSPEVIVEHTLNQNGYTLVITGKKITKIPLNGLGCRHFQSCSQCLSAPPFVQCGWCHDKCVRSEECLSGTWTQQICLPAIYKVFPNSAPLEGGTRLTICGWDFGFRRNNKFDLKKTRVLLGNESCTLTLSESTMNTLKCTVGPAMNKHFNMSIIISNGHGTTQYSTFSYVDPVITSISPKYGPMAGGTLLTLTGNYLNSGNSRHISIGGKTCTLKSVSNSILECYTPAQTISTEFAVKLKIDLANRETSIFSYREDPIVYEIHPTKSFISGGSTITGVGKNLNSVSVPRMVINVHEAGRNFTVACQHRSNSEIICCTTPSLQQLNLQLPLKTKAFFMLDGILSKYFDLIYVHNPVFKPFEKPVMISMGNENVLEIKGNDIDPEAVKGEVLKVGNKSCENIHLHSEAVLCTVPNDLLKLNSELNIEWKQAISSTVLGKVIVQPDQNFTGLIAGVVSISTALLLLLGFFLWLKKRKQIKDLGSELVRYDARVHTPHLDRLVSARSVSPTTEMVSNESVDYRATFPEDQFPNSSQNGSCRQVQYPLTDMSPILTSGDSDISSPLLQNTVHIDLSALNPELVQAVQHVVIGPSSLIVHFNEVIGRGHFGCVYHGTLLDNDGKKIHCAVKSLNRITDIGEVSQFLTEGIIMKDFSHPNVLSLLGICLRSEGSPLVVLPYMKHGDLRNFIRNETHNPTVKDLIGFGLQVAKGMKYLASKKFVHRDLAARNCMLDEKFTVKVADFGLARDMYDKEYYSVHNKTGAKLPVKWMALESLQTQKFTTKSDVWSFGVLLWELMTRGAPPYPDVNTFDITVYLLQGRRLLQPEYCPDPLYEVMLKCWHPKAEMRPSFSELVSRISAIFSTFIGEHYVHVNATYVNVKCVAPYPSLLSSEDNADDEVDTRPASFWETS

Axl = target: T4, Axl (Homo sapiens, UniProt P30530); assay: LanthaScreen Eu kinase binding assay, Axl; settings: Tracer 236
T4 construct: purchased Life Technologies
T4 sequence (P30530 26-894): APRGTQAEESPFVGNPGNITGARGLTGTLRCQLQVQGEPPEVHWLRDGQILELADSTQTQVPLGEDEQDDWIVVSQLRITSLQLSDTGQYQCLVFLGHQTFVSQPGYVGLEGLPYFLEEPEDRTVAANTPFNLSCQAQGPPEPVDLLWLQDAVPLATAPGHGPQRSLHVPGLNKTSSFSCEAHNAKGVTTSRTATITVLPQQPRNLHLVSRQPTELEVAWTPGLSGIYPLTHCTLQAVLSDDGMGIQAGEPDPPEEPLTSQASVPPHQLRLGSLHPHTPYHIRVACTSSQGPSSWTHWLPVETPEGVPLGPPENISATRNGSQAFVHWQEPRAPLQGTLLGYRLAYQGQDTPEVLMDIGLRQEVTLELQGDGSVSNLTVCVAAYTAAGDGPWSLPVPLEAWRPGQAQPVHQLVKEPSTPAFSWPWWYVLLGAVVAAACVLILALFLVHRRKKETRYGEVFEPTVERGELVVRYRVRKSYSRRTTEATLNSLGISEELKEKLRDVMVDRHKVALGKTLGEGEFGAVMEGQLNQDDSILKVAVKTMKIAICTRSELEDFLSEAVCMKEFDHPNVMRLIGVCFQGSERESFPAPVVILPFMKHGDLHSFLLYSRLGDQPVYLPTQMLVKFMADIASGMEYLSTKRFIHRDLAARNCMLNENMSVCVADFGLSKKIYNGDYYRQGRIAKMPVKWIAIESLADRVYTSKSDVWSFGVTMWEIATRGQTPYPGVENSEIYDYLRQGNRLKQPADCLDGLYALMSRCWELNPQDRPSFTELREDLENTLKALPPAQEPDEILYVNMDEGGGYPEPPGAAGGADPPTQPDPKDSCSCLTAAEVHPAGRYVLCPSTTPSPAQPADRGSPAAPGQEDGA

`C=C(C)c1ccncc1-n1cc(OCC)c(C(=O)Nc2ccc(Oc3ccnc4cc(OC)c(OC)cc34)cn2)n1` [Compound 202] showed an IC50 [1] of less than 100 nM, a Kd (TYRO3) of less than 100 nM and a Kd (Mer) of less than 100 nM. For the same compound, the Kd (Met) was less than 100 nM.
`CCOc1cn(C2CCNC2)nc1C(=O)Nc1ccc(Oc2ccnc3cc(OC)c(OC)cc23)cn1` (stereo not drawn) [Compound 69] was tested, and the Kd (TYRO3) was no less than 1000 nM, the Kd (Mer) was 100 to 1000 nM and the Kd (Met) was 100 to 1000 nM. The Kd (Axl) was no less than 1000 nM.
With `CCOc1cn(-c2cccnc2)nc1C(=O)Nc1ncc(Oc2ccnc3cc(OC)c(OC)cc23)cc1F` [Compound 154] the Kd (TYRO3) was no less than 1000 nM, the Kd (Mer) was less than 100 nM and the Kd (Met) was no less than 1000 nM. For the same compound, the Kd (Axl) was less than 100 nM.
For `CCOc1cn(-c2cnccn2)nc1C(=O)Nc1ccc(Oc2ccnc3cc(OC)c(OC)cc23)cc1F` [Compound 152], the Kd (TYRO3) was no less than 1000 nM, the Kd (Mer) was less than 100 nM and the Kd (Met) was no less than 1000 nM. For the same compound, the Kd (Axl) was no less than 1000 nM.
Compound `COc1cc2nccc(Oc3ccc(NC(=O)c4nn(-c5ccc(F)c(C(C)=O)c5)cc4OCC(F)(F)F)nc3)c2cc1OC` [Compound 280] has a Kd (TYRO3) of less than 100 nM, a Kd (Mer) of less than 100 nM and a Kd (Met) of less than 100 nM. The Kd (Axl) was less than 100 nM.
Work on `CCOc1cnn(CCOC(F)F)c1C(=O)Nc1ccc(Oc2ccnc3cc(OC)c(OC)cc23)cn1` [Compound 78] yielded a Kd (TYRO3) of no less than 1000 nM, a Kd (Mer) of 100 to 1000 nM and a Kd (Met) of 100 to 1000 nM. It also gave a Kd (Axl) of no less than 1000 nM.
